Entries after “also recorded” stand apart in the source; their conditions may differ.
Key:
[1] = test system: bFGF-induced corneal neovascularization; experiment: Corneal neovascularization, bFGF pellet in mouse cornea; type: in vivo, C57BL6 male mice; conditions: for ANTI-ANGIOGENIC EFFECT Vessel Length / ANTI-ANGIOGENIC EFFECT Sector Size: pellet with 80 ng bFGF and 44 μg compound, mouse cornea; for ANTI-ANGIOGENIC EFFECT Sector Size: footnote: units of 1/12 of a circle (clock hours)
Procedure: C57BL6 male mice (5-6 weeks old) were anesthetized with methoxyflurane prior to implantation of pellets and with 0.5% proparacaine. A central, intrastromal linear keratotomy was performed with a surgical blade, and a lamellar micropocket was prepared according to the method of Kenyon, et al. (1996). The pellet was advanced to the end of the pocket. Erythromycin ointment was placed on the operated eye to prevent infection. Eyes were examined by slit lamp on days 3-6 after implantation under general anesthesia. Corneal angiogenesis was assayed through two measurements.
Vessel length is the length of the vessel from the corneal limbus as it grows toward the pellet containing bFGF.
Sector size is a measurement of neovascularized area of the cornea. The cornea is viewed as a circle that can be divided into twelve sectors of 30 degrees span each, analogous to the division of a clock face into twelve hours. Thus, neovascularization of a sector corresponding to one fourth of the cornea would be recorded as a sector size measurement of three. This system of measurement, recording sector sizes as “clock hours”, was established by Kenyon et al., Invest. Ophthalmol. 37:1625-1632 (1996).
Pellets were prepared according to a modification of the method of Kenyon, et al. Invest. Opthalmol. Vis. Sci. 37:1625-1632 (1996). […] Once the mixture was dry, the mesh was manually dissociated to yield 225 pellets. […] The approximate pore size was 0.4×0.4 mm. Both sides of the mesh were covered with a thin layer of hydron.
Neovascularization was assessed by slit lamp at 5 days after implantation, and the corneas were photographed.

[2] = test system: quinone reductase [NAD(P)H:(quinone-acceptor) oxidoreductase, EC1.6.99.2] in murine Hepac1c7 cells; experiment: Phase II enzyme induction (quinone reductase); type: cell-based; conditions: for PHASE II INDUCTION CD (concentration to double the measured specific activity): quinone reductase, murine Hepac1c7 cells
Source text: Several plant-derived compounds with anticancer and chemopreventive activities also show the ability to induce phase II detoxifying enzymes, including quinone reductase.

VEGF mRNA = experiment: Production of VEGF mRNA in HaCaT keratinocytes (RNAse protection); type: cell-based, human; conditions: TPA 5 ng/ml, three hours, HaCaT cells
Procedure: HaCaT keratinocytes were grown in (DMEM) (JRH) supplemented with 5% FCS (Hyclone, Logan, UT) in 25 cm^2 flasks. […] TPA was added to a final concentration of 5 ng/ml and cells were incubated for three hours at 37° C. and harvested, and their RNA was extracted with guanidinium thiocyanate/phenol.
A plasmid containing the coding region of human vascular endothelial growth factor (VEGF) 121 was obtained from H. Welch (University of Freiburg, Germany), and used to generate P^32-labeled antisense riboprobe as per manufacturers protocols (Ambion, Austin, Tex.). RNAse protection assays were performed according to the method of Hod, Biotechniques 13:852-853 (1992). Protected fragments were separated on gels of 5% acrylamide, 8 M urea, 1× Tris-borate buffer, and quantified with a phosphorimager (Molecular Dynamics, Sunnyvale, Calif.). An 18S riboprobe was included in each sample to normalize for variations in loading and recovery of RNA.
HaCaT cells are derived from spontaneously transformed human keratinocytes.

[3] = test system: Bovine capillary endothelial cells; experiment: Endothelial proliferation assay, primary endothelial cells; type: cell-based; conditions: 72 hours
Procedure: Bovine capillary endothelial cells were isolated according to the method of Folkman, et al., Proc. Nat. Acad. Sci. U.S.A. 76:5217-5221 (1979), and were plated at a concentration of 10,000 cells/well in gelatinized 24-well dishes. The primary endothelial cells were cultured in Dulbecco's modified Eagle's medium (DMEM) supplemented with 10% bovine serum and grown at 37° C. in 10% CO2. Twenty-four hours after plating, cells were treated with curcumin in the presence or absence of bFGF. After 72 hours of treatment, cells were counted using a Coulter counter. Cell counts for each condition were repeated in triplicate and in the presence or absence of 1 ng/ml bFGF. Endothelial cells were stimulated to proliferate in the presence of 1 ng/ml bFGF.

[4] = test system: MSI (ATCC CCRL 2279) endothelial cells; experiment: Endothelial proliferation assay, SV40 large T antigen immortalized endothelial cells; type: cell-based, murine; conditions: 72-hour exposure
Procedure: Similarly, MSI (ATCC CCRL 2279) endothelial cells, which are a SV40 large T antigen immortalized murine endothelial cell line, were also plated at a concentration of 10,000 cells/well in nongelatinized 24-well dishes.

[5] = test system: omithine decarboxylase induction and promotion of mouse skin; conditions: oral administration; Huang et al. 1995; cited from earlier work
[6] = test system: human umbilical vein endothelial cells (HUVEC); conditions: independent of bFGF stimulation; Singh et al. 1996; cited from earlier work
induced tumors = conditions: oral administration, skin and colon chemical carcinogens; cited from earlier work
[7] = pellet with 80 ng bFGF plus compound

Row | Compound | ANTI-ANGIOGENIC EFFECT Vessel Length [1] [mm.] | ANTI-ANGIOGENIC EFFECT Sector Size [1] [clock hours] | PHASE II INDUCTION CD (concentration to double the measured specific activity) [2] [µM] | other results
1 | COc1cc(CCC(=O)CC(=O)CCc2ccc(O)c(OC)c2)ccc1O [Tetrahydrocurcumin, tetrahydrocurcumin] | 0.74 | 2.43 | >25 | induction of quinone reductase activity ([2]; highest concentration tested, 25 μM): 1.6 fold
2 | O=C1C(c2ccccc2)=C(c2ccccc2)C(c2ccccc2)=C1c1ccccc1 [TPCPD, tetraphenylcyclopentadienone, reference compound] | 1.16 | 3.72 | 4.8 | bFGF-induced corneal neovascularization (in words) [1, 7]: no anti-angiogenic activity; also recorded: no difference in neovascularization; bFGF-induced corneal neovascularization (in words) ([1]; pellet with 80 ng bFGF plus compound, listed as tetraphenylcyclopentadienone (TPCPD)): no effect
3 | O=C(/C=C/c1ccc(O)cc1)CC(=O)/C=C/c1ccc(O)cc1 [Bisdemethoxycurcumin, bisdemethoxycurcumin] | 0.88 | 1.7 | 11.0 | 
4 | CCCCCCCCCCCCCC(=O)O[C@@H]1[C@@H](C)[C@@]2(O)[C@@H](C=C(CO)C[C@]3(O)C(=O)C(C)=C[C@@H]23)[C@@H]2C(C)(C)[C@]12OC(C)=O [TPA, 12-O-tetradecanoylphorbol-13-acetate, reference compound] |  |  |  | increase in VEGF mRNA (VEGF mRNA): 2.5 fold
5 | COc1cc(/C=C/C(=O)CC(=O)/C=C/c2ccc(O)c(OC)c2)ccc1O [Curcumin] | 0.59 | 1.17 | 7.3 | cell number (proliferation) after treatment ([3]; 10 μM, presence or absence of 1 ng/ml bFGF): steep decrease in cell number; cytotoxicity to endothelial cells ([3]; 0.5 to 10 μM): No evidence of cytotoxicity; growth of endothelial cells immortalized by SV40 large T antigen [4]: able to inhibit the growth; sector size (in words) [1, 7]: significantly reduced; vessel length (in words) [1, 7]: significantly reduced; inhibition of TPA-caused increase in VEGF mRNA (VEGF mRNA; 10 μM curcumin): not inhibited; also recorded: lack of inhibition; inhibition of phorbol ester-stimulated ornithine decarboxylase induction and promotion of DMBA-initiated mouse skin [5]: able to inhibit; in vitro proliferation of HUVEC [6]: inhibits; incidence and size of induced tumors compared with control mice (induced tumors): decreased incidence and size
6 | COc1cc(/C=C/C(O)=C/C(=O)/C=C/c2ccc(O)cc2)ccc1O [Demethoxycurcumin, demethoxycurcumin] | 0.26 | 0.71 | 9.0 | 

From patent US6673843B2 (Emory University, priority 1999, dated 2004)
